ChEMBL document CHEMBL4507291 (2021)

Columns and labels:
Details in all cases: Compound concentration 1.0 uM
[1] = target: T1, Serine/threonine-protein kinase Nek1 (Homo sapiens) (UniProt Q96PY6); test: NEK1 Kinase screen
T1 sequence (whole entry): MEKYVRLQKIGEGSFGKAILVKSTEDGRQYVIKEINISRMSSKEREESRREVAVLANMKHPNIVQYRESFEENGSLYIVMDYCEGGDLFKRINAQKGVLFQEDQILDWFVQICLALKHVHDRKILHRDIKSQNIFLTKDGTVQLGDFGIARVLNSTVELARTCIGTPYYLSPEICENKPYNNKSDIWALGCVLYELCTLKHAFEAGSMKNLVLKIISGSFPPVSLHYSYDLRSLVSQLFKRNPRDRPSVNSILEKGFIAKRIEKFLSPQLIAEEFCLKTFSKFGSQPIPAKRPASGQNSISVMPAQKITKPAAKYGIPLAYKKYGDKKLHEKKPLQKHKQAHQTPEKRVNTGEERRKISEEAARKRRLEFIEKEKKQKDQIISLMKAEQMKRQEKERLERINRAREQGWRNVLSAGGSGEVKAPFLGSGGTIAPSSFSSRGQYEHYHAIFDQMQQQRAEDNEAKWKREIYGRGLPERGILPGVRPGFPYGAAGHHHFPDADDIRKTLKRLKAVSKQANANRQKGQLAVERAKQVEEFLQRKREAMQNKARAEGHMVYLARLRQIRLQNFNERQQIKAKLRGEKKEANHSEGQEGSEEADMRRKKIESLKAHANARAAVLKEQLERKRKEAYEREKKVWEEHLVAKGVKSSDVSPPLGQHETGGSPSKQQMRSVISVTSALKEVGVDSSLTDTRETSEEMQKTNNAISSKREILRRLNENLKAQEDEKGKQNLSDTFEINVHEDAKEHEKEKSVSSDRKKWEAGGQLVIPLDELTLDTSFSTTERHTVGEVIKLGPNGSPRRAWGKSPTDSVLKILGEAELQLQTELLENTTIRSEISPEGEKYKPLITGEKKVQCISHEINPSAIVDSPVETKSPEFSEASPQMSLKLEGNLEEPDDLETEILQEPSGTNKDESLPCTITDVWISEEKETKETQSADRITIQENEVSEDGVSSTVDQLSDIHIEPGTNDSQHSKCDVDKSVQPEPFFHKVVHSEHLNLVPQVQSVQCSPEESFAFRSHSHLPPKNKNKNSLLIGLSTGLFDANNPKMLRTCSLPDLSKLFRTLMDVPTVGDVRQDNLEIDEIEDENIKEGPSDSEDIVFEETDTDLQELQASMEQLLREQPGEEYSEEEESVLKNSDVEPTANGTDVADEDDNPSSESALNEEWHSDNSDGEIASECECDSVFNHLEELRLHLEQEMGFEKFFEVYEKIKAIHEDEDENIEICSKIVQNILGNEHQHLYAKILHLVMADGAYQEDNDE

[2] = target: Ribosomal protein S6 kinase alpha-1 (Homo sapiens) (UniProt Q15418); test: RPS6KA1 (RSK1) Kinase screen
Ribosomal protein S6 kinase alpha-1 (Homo sapiens), sequence (Q15418 whole entry): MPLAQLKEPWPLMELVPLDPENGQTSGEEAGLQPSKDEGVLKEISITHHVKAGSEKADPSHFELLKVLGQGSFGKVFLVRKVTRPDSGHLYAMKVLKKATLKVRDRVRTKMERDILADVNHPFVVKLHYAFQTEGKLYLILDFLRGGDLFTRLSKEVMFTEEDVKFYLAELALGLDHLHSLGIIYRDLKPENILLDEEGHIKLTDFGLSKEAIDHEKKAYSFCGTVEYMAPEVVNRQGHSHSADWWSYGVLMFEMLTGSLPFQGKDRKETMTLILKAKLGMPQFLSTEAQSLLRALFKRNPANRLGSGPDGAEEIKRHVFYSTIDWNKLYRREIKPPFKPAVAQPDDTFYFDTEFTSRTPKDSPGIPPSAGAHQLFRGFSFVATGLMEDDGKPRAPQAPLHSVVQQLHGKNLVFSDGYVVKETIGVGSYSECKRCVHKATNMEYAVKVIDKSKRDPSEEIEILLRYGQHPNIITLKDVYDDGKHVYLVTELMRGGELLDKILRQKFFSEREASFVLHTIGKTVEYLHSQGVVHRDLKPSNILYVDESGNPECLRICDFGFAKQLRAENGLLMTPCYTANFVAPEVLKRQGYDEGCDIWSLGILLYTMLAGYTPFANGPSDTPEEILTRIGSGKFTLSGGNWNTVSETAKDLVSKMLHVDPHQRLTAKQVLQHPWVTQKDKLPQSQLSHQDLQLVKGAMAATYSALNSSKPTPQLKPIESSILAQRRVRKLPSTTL

[3] = target: Insulin receptor (Homo sapiens) (UniProt P06213); test: INSR Kinase screen
Insulin receptor (Homo sapiens), sequence (P06213 28-758 limits assumed): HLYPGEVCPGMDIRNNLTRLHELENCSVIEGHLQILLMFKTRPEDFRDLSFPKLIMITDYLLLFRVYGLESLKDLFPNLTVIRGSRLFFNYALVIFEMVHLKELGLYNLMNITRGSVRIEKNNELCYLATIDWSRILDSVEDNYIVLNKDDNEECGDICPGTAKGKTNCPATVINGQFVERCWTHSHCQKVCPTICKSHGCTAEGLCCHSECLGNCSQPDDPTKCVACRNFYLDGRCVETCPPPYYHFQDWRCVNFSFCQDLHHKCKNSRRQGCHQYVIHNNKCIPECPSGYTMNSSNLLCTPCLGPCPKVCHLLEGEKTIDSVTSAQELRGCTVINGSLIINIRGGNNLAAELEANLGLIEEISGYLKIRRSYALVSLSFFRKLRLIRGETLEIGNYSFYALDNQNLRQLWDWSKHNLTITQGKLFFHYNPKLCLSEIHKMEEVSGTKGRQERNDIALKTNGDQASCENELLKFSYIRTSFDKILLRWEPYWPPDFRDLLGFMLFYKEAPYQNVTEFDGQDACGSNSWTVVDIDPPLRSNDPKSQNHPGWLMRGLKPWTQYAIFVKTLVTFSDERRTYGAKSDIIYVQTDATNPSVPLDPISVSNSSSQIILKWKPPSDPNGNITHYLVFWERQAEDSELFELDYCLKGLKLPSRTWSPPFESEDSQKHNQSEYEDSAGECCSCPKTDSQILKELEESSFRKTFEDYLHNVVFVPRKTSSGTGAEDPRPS
Insulin receptor (Homo sapiens), sequence (P06213 763-1382 limits assumed): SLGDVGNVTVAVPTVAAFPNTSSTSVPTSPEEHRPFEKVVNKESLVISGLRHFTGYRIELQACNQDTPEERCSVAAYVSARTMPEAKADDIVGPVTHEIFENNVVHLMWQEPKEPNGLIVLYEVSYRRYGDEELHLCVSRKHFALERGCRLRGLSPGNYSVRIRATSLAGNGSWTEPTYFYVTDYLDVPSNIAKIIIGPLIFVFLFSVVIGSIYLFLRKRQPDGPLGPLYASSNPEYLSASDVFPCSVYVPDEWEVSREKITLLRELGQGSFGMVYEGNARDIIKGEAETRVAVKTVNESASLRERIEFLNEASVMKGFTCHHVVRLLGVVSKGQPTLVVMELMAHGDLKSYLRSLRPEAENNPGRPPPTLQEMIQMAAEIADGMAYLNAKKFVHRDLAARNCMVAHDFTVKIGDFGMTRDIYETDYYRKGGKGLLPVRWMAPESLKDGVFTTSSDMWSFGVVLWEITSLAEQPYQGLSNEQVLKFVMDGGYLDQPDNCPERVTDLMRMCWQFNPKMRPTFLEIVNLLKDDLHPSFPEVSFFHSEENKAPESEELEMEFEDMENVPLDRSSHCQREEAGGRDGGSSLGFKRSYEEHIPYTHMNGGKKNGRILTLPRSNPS

[4] = target: T2, Aurora kinase A (Homo sapiens) (UniProt O14965); test: AURKA (Aurora A) Kinase screen
T2 sequence (whole entry): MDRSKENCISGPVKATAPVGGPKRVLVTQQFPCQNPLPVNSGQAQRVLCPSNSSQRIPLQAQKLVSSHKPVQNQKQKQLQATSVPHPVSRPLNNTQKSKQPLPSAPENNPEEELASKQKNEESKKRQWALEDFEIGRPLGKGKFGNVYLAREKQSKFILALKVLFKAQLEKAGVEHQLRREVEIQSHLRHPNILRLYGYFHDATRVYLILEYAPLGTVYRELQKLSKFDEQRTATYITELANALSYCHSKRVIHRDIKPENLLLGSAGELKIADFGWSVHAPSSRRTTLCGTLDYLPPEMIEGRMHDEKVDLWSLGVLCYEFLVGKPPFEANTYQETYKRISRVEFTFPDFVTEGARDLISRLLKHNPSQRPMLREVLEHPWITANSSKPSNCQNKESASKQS

[5] = target: Dual specificity tyrosine-phosphorylation-regulated kinase 4 (Homo sapiens) (UniProt Q9NR20); test: DYRK4 Kinase screen
Dual specificity tyrosine-phosphorylation-regulated kinase 4 (Homo sapiens), sequence (Q9NR20 whole entry): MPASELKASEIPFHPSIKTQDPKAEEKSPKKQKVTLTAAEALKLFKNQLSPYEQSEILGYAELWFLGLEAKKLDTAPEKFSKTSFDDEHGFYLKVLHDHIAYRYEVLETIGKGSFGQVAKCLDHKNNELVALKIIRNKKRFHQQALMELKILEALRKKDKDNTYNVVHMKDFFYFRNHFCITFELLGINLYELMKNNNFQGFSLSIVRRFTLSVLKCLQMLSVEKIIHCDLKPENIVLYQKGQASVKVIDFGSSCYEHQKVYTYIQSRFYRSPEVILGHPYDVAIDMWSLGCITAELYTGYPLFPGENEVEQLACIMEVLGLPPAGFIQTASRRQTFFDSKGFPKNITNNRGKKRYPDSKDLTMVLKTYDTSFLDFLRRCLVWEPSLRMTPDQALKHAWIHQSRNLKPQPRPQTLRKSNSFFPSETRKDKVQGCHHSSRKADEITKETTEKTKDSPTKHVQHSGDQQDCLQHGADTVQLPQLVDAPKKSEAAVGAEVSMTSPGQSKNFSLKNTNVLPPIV

[6] = target: T3, Serine/threonine-protein kinase TBK1 (Homo sapiens) (UniProt Q9UHD2); test: TBK1 Kinase screen
T3 sequence (whole entry): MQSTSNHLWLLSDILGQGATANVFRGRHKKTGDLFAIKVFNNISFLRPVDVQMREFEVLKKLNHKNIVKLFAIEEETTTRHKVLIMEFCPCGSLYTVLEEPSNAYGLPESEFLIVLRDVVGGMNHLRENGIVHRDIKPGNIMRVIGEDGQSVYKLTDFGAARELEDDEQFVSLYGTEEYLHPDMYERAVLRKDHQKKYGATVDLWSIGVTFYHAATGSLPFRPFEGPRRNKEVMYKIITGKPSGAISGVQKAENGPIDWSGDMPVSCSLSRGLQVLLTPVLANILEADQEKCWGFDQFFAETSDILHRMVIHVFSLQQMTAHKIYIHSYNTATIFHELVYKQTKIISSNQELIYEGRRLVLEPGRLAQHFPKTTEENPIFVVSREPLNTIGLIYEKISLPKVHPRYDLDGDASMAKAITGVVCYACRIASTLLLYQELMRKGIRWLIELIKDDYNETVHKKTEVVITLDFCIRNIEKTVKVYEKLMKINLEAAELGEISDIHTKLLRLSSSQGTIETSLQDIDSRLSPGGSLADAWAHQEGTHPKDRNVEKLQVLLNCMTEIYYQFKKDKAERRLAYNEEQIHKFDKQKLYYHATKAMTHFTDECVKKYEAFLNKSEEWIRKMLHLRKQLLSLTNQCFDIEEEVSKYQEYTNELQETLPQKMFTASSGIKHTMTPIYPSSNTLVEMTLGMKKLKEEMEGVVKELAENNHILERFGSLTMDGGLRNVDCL

Measured: inhibition

C[C@@H]1CN(c2cc(-c3n[nH]c4ccc(OC5(C)CC5)cc34)ncn2)C[C@H](C)O1 [MLi-2]
inactive: [1] 3.48% | [2] 8.66% | [3] -0.884% | [4] -0.211% | [5] 1.74% | [6] 7.78%
